# Results published in US20250025417A1, “ORAL ABIRATERONE FORMULATIONS” (PROPELLA THERAPEUTICS, INC., priority 2021, published 2025).
# What was measured:
# [1] = Solubility of abiraterone decanoate in lipid-based vehicles at 25° C. (HPLC); type: physicochemical; conditions: for Solubility (mg/g) at 25° C.: Day 13 results; for Solb (mg/g) at 25° C.: average of day 2 and day 7
# Experimental: In this example, solubility of abiraterone decanoate in the following four vehicles were tested. Each vehicle has a distinctive base, namely, medium chain trigylceride (MCT)/polyoxylglyceride, long chain (LC) monodiglyceride, and two propylene glycol (PG) monoesters, caprylic and lauryl. • Vehicle 1: MCT/Polyoxylglyceride based: 20% Kolliphor RH40/14% Plurol Oleique CC 497/33% Labrafil 1944 CS/33% Labrafac Lipophile WL 1349 • Vehicle 2: PG Monoester based: 20% Kolliphor RH 40/14% Plurol Oleique CC 497/66% Lauroglycol 90 • Vehicle 3: PG Monoester based: 20% Kolliphor RH40/14% Plurol Oleique CC 497/66% Capmul PG-8 • Vehicle 4: LC Monodiglyceride based: 20% Kolliphor RH40/14% Plurol Oleique CC 497/66% Maisine CC
# Solubilities of abiraterone decanoate in different vehicles were tested following the procedure below: • Prepare 5 g of each vehicle by weight • In a 4-mL vial, weigh about 350 mg drug and then add 2 mL of vehicle • Sonicate and vortex all samples, then place on a rotator at 25° C. • At the end of the day check the samples to see if the drug completely dissolved. If so, use wax paper to transfer additional drug, record the additional amount added. • After 2-3 days, remove about 0.5 mL from each sample and filter using a microcentrifuge. […] Results were obtained for samples after 2 days and after 7 days.
# The vehicles being tested have the following compositions: • Vehicle 1 (see Example 2): 20% Kolliphor RH40/14% Plurol Oleique CC 497/33% Labrafil 1944 CS/33% Labrafac Lipophile WL 1349, used as a control. • Vehicle 5: 20% Kolliphor RH40/14% Plurol Oleique CC 497/33% Maisine CC/33% Labrafac Lipophile WL 1349* • Vehicle 6: 20% Kolliphor RH40/14% Plurol Oleique CC 497/16% Labrafil 1944 CS/30% Maisine CC/20% Labrafac Lipophile WL 1349 • Vehicle 7: 20% Kolliphor RH40/14% Plurol Oleique CC 497/16% Labrafil 1944 CS/30% Capmul PG-8/20% Labrafac Lipophile WL 1349 • Vehicle 8: 20% Kolliphor RH40/14% Plurol Oleique CC 497/16% Labrafil 1944 CS/30% Capmul PG-12/20% Labrafac Lipophile WL 1349 • Vehicle 9: 20% Kolliphor RH40/14% Plurol Oleique CC 497/16% Labrafil 1944 CS/30% Labrafil M 2130 CS/20% Labrafac Lipophile WL 1349
# The procedures for preparing samples and solubility testing are similar to those described in Example 2.
# [2] = Forms A, B, and C
smiles,measurement,setting,value
CCCCCCCCCC(=O)O[C@H]1CC[C@@]2(C)C(=CC[C@@H]3[C@@H]2CC[C@]2(C)C(c4cccnc4)=CC[C@@H]32)C1 [abiraterone decanoate],solubility in lipid based vehicles (in words),[1]; Examples 2 and 3,good solubilities
same,Solubility (mg/g) at 25° C.,[1]; Vehicle 1 (control),101.1 mg/g
same,Solb (mg/g) at 25° C.,[1]; Vehicle 1: 20% Kolliphor RH40/14% Plurol Oleique CC 497/33% Labrafil 1944 CS/33% Labrafac Lipophile WL 1349,88.5 mg/g
same,Solb (mg/g) at 25° C.,[1]; Vehicle 2: 20% Kolliphor RH 40/14% Plurol Oleique CC 497/66% Lauroglycol 90,143.9 mg/g
same,Solb (mg/g) at 25° C.,[1]; Vehicle 3: 20% Kolliphor RH40/14% Plurol Oleique CC 497/66% Capmul PG-8,149.2 mg/g
same,Solb (mg/g) at 25° C.,[1]; Vehicle 4: 20% Kolliphor RH40/14% Plurol Oleique CC 497/66% Maisine CC,110.2 mg/g
same,Solubility (mg/g) at 25° C.,[1]; Vehicle 5: 20% Kolliphor RH40/14% Plurol Oleique CC 497/33% Maisine CC/33% Labrafac Lipophile WL 1349,111.5 mg/g
same,Solubility (mg/g) at 25° C.,[1]; Vehicle 6: 20% Kolliphor RH40/14% Plurol Oleique CC 497/16% Labrafil 1944 CS/30% Maisine CC/20% Labrafac Lipophile WL 1349,114.3 mg/g
same,Solubility (mg/g) at 25° C.,[1]; Vehicle 7: 20% Kolliphor RH40/14% Plurol Oleique CC 497/16% Labrafil 1944 CS/30% Capmul PG-8/20% Labrafac Lipophile WL 1349,141.2 mg/g
same,Solubility (mg/g) at 25° C.,[1]; Vehicle 8: 20% Kolliphor RH40/14% Plurol Oleique CC 497/16% Labrafil 1944 CS/30% Capmul PG-12/20% Labrafac Lipophile WL 1349,132.9 mg/g
same,DVS Max H2O uptake (wt %),[2],N/A - non-hygroscopic
